Type in all cases: functional, cell-based
The target of test [1] is T1, Glutamate receptor 4 (Homo sapiens, UniProt P48058). The experiment in a line: Activity at human recombinant iGluR4 flip expressed in HEK293 cells measured as change in intracellular calcium ion concentration in presence of glutamate by FLIPR assay.
For test [2], the target named is T2, Glutamate receptor 2 (Homo sapiens, UniProt P42262). The experiment in a line: Activity at human recombinant iGluR2 flop expressed in HEK293 cells measured as change in intracellular calcium ion concentration in presence of glutamate by FLIPR assay. A general note: A change in cytosolic calcium serves as a functional read-out for many receptors and channels.
T2 sequence (P42262 whole entry): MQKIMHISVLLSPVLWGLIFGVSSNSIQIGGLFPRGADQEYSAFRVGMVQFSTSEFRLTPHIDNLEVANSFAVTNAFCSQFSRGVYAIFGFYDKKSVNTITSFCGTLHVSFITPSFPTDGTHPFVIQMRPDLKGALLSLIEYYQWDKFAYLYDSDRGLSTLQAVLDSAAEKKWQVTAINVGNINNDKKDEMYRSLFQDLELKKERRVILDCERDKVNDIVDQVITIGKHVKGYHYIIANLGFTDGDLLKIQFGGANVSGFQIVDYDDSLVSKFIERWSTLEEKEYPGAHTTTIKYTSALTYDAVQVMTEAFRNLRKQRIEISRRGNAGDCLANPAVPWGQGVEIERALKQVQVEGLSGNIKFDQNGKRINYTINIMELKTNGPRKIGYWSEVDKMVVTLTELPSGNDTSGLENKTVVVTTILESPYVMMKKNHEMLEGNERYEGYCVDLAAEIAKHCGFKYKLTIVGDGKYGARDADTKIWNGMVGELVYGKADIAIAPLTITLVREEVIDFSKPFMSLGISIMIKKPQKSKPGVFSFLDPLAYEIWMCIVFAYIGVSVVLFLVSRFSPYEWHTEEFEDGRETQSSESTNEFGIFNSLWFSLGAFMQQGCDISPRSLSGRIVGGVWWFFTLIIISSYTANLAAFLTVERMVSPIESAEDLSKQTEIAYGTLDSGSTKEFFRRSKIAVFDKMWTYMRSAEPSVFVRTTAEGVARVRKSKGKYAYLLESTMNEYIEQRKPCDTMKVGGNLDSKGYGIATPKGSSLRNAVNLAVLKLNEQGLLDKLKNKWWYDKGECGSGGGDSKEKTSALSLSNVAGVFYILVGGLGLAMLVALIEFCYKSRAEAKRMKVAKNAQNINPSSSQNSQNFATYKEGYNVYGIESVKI

The target in test [3] is T2, Glutamate receptor 2. The experiment in a line: Activity at human recombinant iGluR2 flip expressed in HEK293 cells measured as change in intracellular calcium ion concentration in presence of glutamate by FLIPR assay.
The target of test [4] is T1, Glutamate receptor 4. The experiment in a line: Activity at human recombinant iGluR4 flop expressed in HEK293 cells measured as change in intracellular calcium ion concentration in presence of glutamate by FLIPR assay.

The values below come from ChEMBL document CHEMBL1146909, “A novel class of positive allosteric modulators of AMPA receptors: design, synthesis, and structure-activity relationships of 3-biphenyl-4-yl-4-cyano-5-ethyl-1-methyl-1H-pyrrole-2-carboxylic acid, LY2059346” (Bioorg Med Chem Lett, 2006).

Structures are written as SMILES.

T1 sequence (P48058 whole entry): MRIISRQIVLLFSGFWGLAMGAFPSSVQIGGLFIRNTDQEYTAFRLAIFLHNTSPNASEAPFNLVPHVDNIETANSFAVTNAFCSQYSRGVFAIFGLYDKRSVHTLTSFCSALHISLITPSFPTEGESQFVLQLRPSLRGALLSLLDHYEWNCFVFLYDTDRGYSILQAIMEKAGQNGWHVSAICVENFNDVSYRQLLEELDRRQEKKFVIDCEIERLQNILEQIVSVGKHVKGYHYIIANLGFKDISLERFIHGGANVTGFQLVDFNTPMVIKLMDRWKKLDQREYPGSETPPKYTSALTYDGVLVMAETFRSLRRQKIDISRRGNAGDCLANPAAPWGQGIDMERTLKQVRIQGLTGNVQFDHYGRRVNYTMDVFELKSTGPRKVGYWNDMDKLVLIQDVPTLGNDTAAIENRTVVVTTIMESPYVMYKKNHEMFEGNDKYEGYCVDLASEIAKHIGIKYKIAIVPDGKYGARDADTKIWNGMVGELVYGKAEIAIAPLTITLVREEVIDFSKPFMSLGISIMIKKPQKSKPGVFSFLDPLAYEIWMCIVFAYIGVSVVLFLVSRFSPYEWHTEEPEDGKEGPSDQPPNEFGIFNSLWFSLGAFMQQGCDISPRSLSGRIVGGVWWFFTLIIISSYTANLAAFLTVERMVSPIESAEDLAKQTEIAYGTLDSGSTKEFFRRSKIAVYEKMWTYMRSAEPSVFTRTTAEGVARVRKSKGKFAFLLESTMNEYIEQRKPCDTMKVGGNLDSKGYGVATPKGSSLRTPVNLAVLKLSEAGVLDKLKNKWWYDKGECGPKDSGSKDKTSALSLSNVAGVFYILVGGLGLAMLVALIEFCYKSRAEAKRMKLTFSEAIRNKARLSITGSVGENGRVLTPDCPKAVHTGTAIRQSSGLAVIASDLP

Consider `CCc1c(C#N)c(-c2ccc(-c3cccc(F)c3)cc2)c(C(=O)O)n1C`, for which the EC50 (as a rule, the concentration at which the effect is half-maximal) at Glutamate receptor 4 [1] was 223 nM; at Glutamate receptor 2 [2], 1490 nM; on Glutamate receptor 2 [3] it was 426 nM; at Glutamate receptor 4 [4] it was above 3000 nM.

As to `CCc1c(C#N)c(-c2ccc(-c3ccccc3F)cc2)c(C(=O)O)n1C`, the EC50 at Glutamate receptor 4 [1] turned out to be 80 nM; on Glutamate receptor 2 [2], 143 nM; on Glutamate receptor 2 [3], 111 nM; at Glutamate receptor 4 [4], 185 nM.

As for `CCc1c(C#N)c(-c2ccc(-c3ccc(OC)cc3)cc2)c(C(=O)O)n1C`, the EC50 at Glutamate receptor 4 [1] was 738 nM; at Glutamate receptor 2 [2], 370 nM; at Glutamate receptor 2 [3], 423 nM; on Glutamate receptor 4 [4], above 3000 nM.

Consider `CCc1c(C#N)c(-c2ccc(-c3ccccc3C)cc2)c(C(=O)O)n1C`, for which the EC50 on Glutamate receptor 4 [1] stood at 790 nM; at Glutamate receptor 2 [2], 990 nM; on Glutamate receptor 2 [3], 270 nM; on Glutamate receptor 4 [4], 1180 nM.

In the case of `CC(C)Sc1c(C#N)c(-c2ccc(-c3ccccc3)cc2)c(C(=O)O)n1C`, the EC50 at Glutamate receptor 4 [1], at Glutamate receptor 2 [2], on Glutamate receptor 2 [3] and at Glutamate receptor 4 [4] was above 3000 nM throughout.

Take `CCc1c(C#N)c(-c2ccc(-c3ccc(C#N)cc3)cc2)c(C(=O)O)n1C`: the EC50 on Glutamate receptor 4 [1] is 373 nM; at Glutamate receptor 2 [2] it was 370 nM; on Glutamate receptor 2 [3], 423 nM; on Glutamate receptor 4 [4], above 3000 nM.

`CCOc1ccccc1-c1ccc(-c2c(C#N)c(CC)n(C)c2C(=O)O)cc1`: the EC50 on Glutamate receptor 4 [1] was 158 nM; on Glutamate receptor 2 [2] it was 36 nM; on Glutamate receptor 2 [3], 83 nM; at Glutamate receptor 4 [4], 146 nM.

As for `CCSc1c(C#N)c(-c2ccc(-c3ccccc3)cc2)c(C(=O)O)n1C`, at Glutamate receptor 4 [1], the EC50 was 619 nM.

In the case of `CCc1c(C#N)c(-c2ccc(-c3cccc(Cl)c3)cc2)c(C(=O)O)n1C`, the EC50 was 1080 nM at Glutamate receptor 4 [1], 900 nM on Glutamate receptor 2 [2], 186 nM at Glutamate receptor 2 [3] and above 3000 nM at Glutamate receptor 4 [4].

With `Cc1c(C#N)c(-c2ccc(-c3ccccc3)cc2)c(C(=O)O)n1C`, the EC50 on Glutamate receptor 4 [1] was determined as 532 nM; at Glutamate receptor 2 [2] it was 391 nM; at Glutamate receptor 2 [3] it was 308 nM; at Glutamate receptor 4 [4], 2390 nM.

For the compound `CCc1c(C#N)c(-c2ccc(-c3cccc(C)c3)cc2)c(C(=O)O)n1C`, the EC50 at Glutamate receptor 4 [1] is 2080 nM; on Glutamate receptor 2 [2], 2130 nM; on Glutamate receptor 2 [3] it was 965 nM; at Glutamate receptor 4 [4] it was above 3000 nM.

Take `CCc1c(C#N)c(-c2ccc(-c3cccc(C#N)c3)cc2)c(C(=O)O)n1C`: the EC50 at Glutamate receptor 4 [1] was 631 nM; on Glutamate receptor 2 [2] it was 974 nM; at Glutamate receptor 2 [3] it was 395 nM; at Glutamate receptor 4 [4], above 3000 nM.

Take `CSc1c(C#N)c(-c2ccc(-c3ccccc3)cc2)c(C(=O)O)n1C`: the EC50 on Glutamate receptor 4 [1] stood at 394 nM; at Glutamate receptor 2 [2], 473 nM; at Glutamate receptor 2 [3], 174 nM; at Glutamate receptor 4 [4], 1300 nM.

On to `CCc1c(C#N)c(-c2ccc(-c3ccccc3OC)cc2)c(C(=O)O)n1C`, for which the EC50 on Glutamate receptor 4 [1] was 673 nM; on Glutamate receptor 2 [2] it was 902 nM; at Glutamate receptor 2 [3], 280 nM; at Glutamate receptor 4 [4] it was 386 nM.

As for `CCc1c(C#N)c(-c2ccc(-c3cccc(OC)c3)cc2)c(C(=O)O)n1C`, the EC50 is 1050 nM at Glutamate receptor 4 [1], 924 nM on Glutamate receptor 2 [2], 391 nM at Glutamate receptor 2 [3] and above 3000 nM on Glutamate receptor 4 [4].

For the compound `CCc1c(C#N)c(-c2ccc(-c3ccccc3C#N)cc2)c(C(=O)O)n1C`, the EC50 on Glutamate receptor 4 [1] amounted to 56 nM; on Glutamate receptor 2 [2] it was 73 nM; at Glutamate receptor 2 [3], 82 nM; on Glutamate receptor 4 [4], 53 nM.

As for `CCc1c(C#N)c(-c2ccc(-c3ccccc3SC)cc2)c(C(=O)O)n1C`, the EC50 on Glutamate receptor 4 [1] came out at 105 nM; on Glutamate receptor 2 [2], 32 nM; at Glutamate receptor 2 [3], 57 nM; at Glutamate receptor 4 [4], 77 nM.

Take `CCc1c(C#N)c(-c2ccc(-c3ccccc3Cl)cc2)c(C(=O)O)n1C`: the EC50 was 225 nM on Glutamate receptor 4 [1], 55 nM on Glutamate receptor 2 [2], 42 nM at Glutamate receptor 2 [3] and 157 nM on Glutamate receptor 4 [4].

In the case of `CSc1sc(C(=O)O)c(-c2ccc(C(C)(C)C)cc2)c1C#N`, the EC50 on Glutamate receptor 4 [1] was 214 nM; on Glutamate receptor 2 [2], 309 nM; at Glutamate receptor 2 [3], 97 nM; on Glutamate receptor 4 [4] it was 1560 nM.

With `CCc1c(C#N)c(-c2ccc(-c3ccc(Cl)cc3)cc2)c(C(=O)O)n1C`, the EC50 on Glutamate receptor 4 [1] is 910 nM; on Glutamate receptor 2 [2], 984 nM; on Glutamate receptor 2 [3], 142 nM; at Glutamate receptor 4 [4], above 3000 nM.

Take `CCc1c(C#N)c(-c2ccc(-c3ccc(F)cc3)cc2)c(C(=O)O)n1C`: the EC50 was found to be 242 nM at Glutamate receptor 4 [1], 1040 nM at Glutamate receptor 2 [2], 345 nM at Glutamate receptor 2 [3] and 2950 nM on Glutamate receptor 4 [4].

On to `CCc1c(C#N)c(-c2ccc(-c3ccc(C)cc3)cc2)c(C(=O)O)n1C`, for which the EC50 is 1140 nM on Glutamate receptor 4 [1], 1650 nM at Glutamate receptor 2 [2], 412 nM on Glutamate receptor 2 [3] and above 3000 nM at Glutamate receptor 4 [4].

For `CCc1c(C#N)c(-c2ccc(-c3ccccc3)cc2)c(C(=O)O)n1C`, the EC50 was determined as 213 nM on Glutamate receptor 4 [1], 398 nM at Glutamate receptor 2 [2], 103 nM on Glutamate receptor 2 [3] and 1770 nM at Glutamate receptor 4 [4].

For `Cn1c(Br)c(C#N)c(-c2ccc(-c3ccccc3)cc2)c1C(=O)O`, the EC50 at Glutamate receptor 4 [1] is 679 nM; at Glutamate receptor 2 [2], above 3000 nM; on Glutamate receptor 2 [3], above 3000 nM; on Glutamate receptor 4 [4], 1690 nM.

`Cn1cc(C#N)c(-c2ccc(-c3ccccc3)cc2)c1C(=O)O`: the EC50 at Glutamate receptor 4 [1], at Glutamate receptor 2 [2], on Glutamate receptor 2 [3] and on Glutamate receptor 4 [4] was above 3000 nM in each case.
